Experimental findings from PubChem BioAssay (NCI) are described below.

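Step 1: Grow cells in 96-well plates. Step 2: Expose to compound for 48 hours at 5 concentrations. Step 3: Interpolate endpoints linearly; if unreached, use highest concentration. The concentration for 50% growth inhibition is given as GI50. Definition used: TGI = concentration required for complete inhibition of growth.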

Holding throughout (test): NCI tumour cell line growth inhibition, 48 h
Assay [1] relates to CCRF-CEM leukemia.
Assay [2] relates to HOP-62 NSCLC.
Assay [3] concerns NCI-H460 lung.
Assay [4] has as its system OVCAR-3 ovarian.
For assay [5], the system named is SF-295 CNS.
In assay [6] the test system is SNB-19 CNS.
The subject of assay [7] is U251 CNS.
Assay [8] deals with UACC-257 melanoma.
For assay [9], the system named is UACC-62 melanoma.
In assay [10] the test system is UO-31 renal.

Consider `C=C1C(=O)O[C@H]2[C@H]1CC/C(COC(=O)NCC(C)c1ccc(CC(C)C)cc1)=C\CC[C@@]1(C)O[C@@H]21` (stereo partly drawn), for which the GI50 in [1] is 0.644 µM; in [2] it was 5.29 µM; in [3], 4.69 µM; in assay [4], 0.625 µM; in assay [5], 4.44 µM; in [6], 3.82 µM. Further, the GI50 is 4.32 µM in assay [7], 5.01 µM in assay [8], 0.751 µM in [9] and 0.474 µM in assay [10]. Further, the TGI in [1] amounted to 3.61 µM; in [2], 10.5 µM; in assay [3], 10 µM; in [4], 1.27 µM; in assay [5] it was 8.69 µM; in assay [6] it was 7.95 µM. In addition, the TGI came out at 8.7 µM in assay [7], 9.89 µM in assay [8], 2.35 µM in [9] and 0.909 µM in [10].
Regarding `O=C1CCCCN1CCCCC#Cc1cccc(C#Cc2cccnc2)c1`, the GI50 in assay [1] was 30.9 µM; in assay [2], 15.2 µM; in [3], 19.6 µM; in assay [4] it was 22.6 µM; in assay [5] it was 18.1 µM; in [6], 13 µM. The GI50 in [7] is 7.05 µM; in [8], 17.7 µM; in assay [9], 4.82 µM; in assay [10], 5.97 µM. In addition, the TGI in assay [1] is above 100 µM; in [2], 31.4 µM; in assay [3], above 100 µM; in [4], 71.4 µM; in assay [5] it was 84 µM; in [6] it was 27.2 µM. Moreover, the TGI in assay [7] worked out at 22 µM; in assay [8], 49.6 µM; in assay [9], 16.9 µM; in assay [10], 23 µM.
In the case of `CCOC(=O)C(NC(=O)c1nc[nH]c1[N+](=O)[O-])C(C)C` (stereo not drawn), the TGI in assay [1], in assay [2], in assay [3], in assay [4], in [5] and in assay [6] was above 100 µM each time. Moreover, the TGI in [7], in [8], in [9] and in [10] was above 100 µM each time.
For the compound `Cc1ccc(NC(=O)c2cc(S(=O)(=O)N3C(=O)NC(=O)NS3(=O)=O)c(S)cc2Cl)cc1`, the GI50 is 15.9 µM in assay [1]; 33.9 µM in assay [2]; 29.4 µM in assay [3]; 16.5 µM in assay [4]; 26.2 µM in assay [5]; 69.5 µM in assay [6]. In addition, the GI50 was 27.1 µM in assay [7], 17.2 µM in [8], 15.7 µM in assay [9] and 27.8 µM in assay [10]. Besides, the TGI is 40.3 µM in [1]; above 100 µM in [2]; above 100 µM in [3]; 36.4 µM in assay [4]; 55 µM in assay [5]; above 100 µM in assay [6]. Besides, the TGI in assay [7] was above 100 µM; in assay [8] it was 46.8 µM; in [9], 36 µM; in assay [10], above 100 µM.
As for `Cc1cc(N(CCC#N)CCC#N)ccc1/C=C(\NC(=O)/C=C/c1ccccc1)C(=O)NN`, the TGI in [1] is above 100 µM; in assay [2] it was above 90.3 µM; in assay [3] it was above 100 µM; in assay [4], above 100 µM; in assay [5] it was above 95.6 µM; in assay [6] it was above 55.7 µM. Also, the TGI in assay [7] is above 78 µM; in [8], above 100 µM; in assay [9], above 100 µM; in assay [10] it was above 100 µM.
On to `CCN(C(=O)/C=C/c1ccco1)c1ccccc1`, for which the TGI in [1], in assay [2], in assay [3], in assay [4], in [5] and in assay [6] was above 100 µM each time. Further, the TGI in assay [7], in [8], in assay [9] and in assay [10] was above 100 µM throughout.
For the compound `Cc1ccc(-c2nc3nc(-c4ccc(F)cc4)nc(N4CCCNCC4)c3o2)cc1`, the GI50 in [1] was 0.293 µM; in assay [2] it was 1.74 µM; in assay [3] it was 1.79 µM; in [4], 1.55 µM; in assay [5], 1.82 µM; in assay [6], 1.7 µM. The GI50 in assay [7] is 1.33 µM; in assay [8] it was 1.89 µM; in assay [9] it was 1.83 µM; in assay [10], 1.44 µM. Moreover, the TGI in assay [1] came to 1.04 µM; in assay [2] it was 3.51 µM; in [3], 3.53 µM; in assay [4] it was 2.96 µM; in assay [5], 3.35 µM; in [6], 3.22 µM. Moreover, the TGI is 2.83 µM in [7], 3.65 µM in [8], 3.47 µM in assay [9] and 2.79 µM in assay [10].
Take `CC(NC(=O)N(C)C)NC(=O)N(C)C`: the TGI in assay [1], in assay [2], in assay [3], in [4], in assay [5] and in [6] was above 10 µM each time. Besides, the TGI in assay [7], in assay [8], in assay [9] and in assay [10] was above 10 µM each time.
For the compound `C=C1C[C@@H]2CC[C@@]34C[C@H]5O[C@H]6[C@@H](O3)[C@H]3O[C@H](CC[C@@H]3O[C@H]6[C@@H]5O4)CC(=O)C[C@@H]3[C@@H](OC)[C@@H](C[C@H](O)CN)O[C@H]3C[C@H]3O[C@@H](CC[C@@H]1O2)C[C@@H](C)C3=C`, the GI50 was below 0.01 µM in assay [1]; below 0.0115 µM in [2]; below 0.01 µM in [3]; below 0.01 µM in assay [4]; below 0.01 µM in assay [5]; below 0.01 µM in [6]. In addition, the GI50 in assay [7] was below 0.01 µM; in assay [8], above 65.8 µM; in [9], below 0.01 µM; in [10], 1.34 µM. For the same compound, the TGI in assay [1] is above 100 µM; in [2], above 100 µM; in assay [3], above 100 µM; in assay [4], 0.0219 µM; in [5] it was 0.839 µM; in assay [6], above 100 µM. Moreover, the TGI in [7], in assay [8], in assay [9] and in [10] was above 100 µM in each case.
Consider `COc1ccc2c(c1)/C(=C/c1cc(OC)c(OC)c(OC)c1)C(=O)N2`, for which the GI50 was 0.253 µM in assay [1]; 0.137 µM in assay [2]; 0.269 µM in [3]; 0.104 µM in assay [5]; 0.433 µM in assay [6]; 0.407 µM in assay [7]. Besides, the GI50 in assay [8] is 0.615 µM; in assay [9], 0.37 µM; in [10], 2.74 µM. Moreover, the TGI in [2] is above 47.5 µM; in assay [3] it was above 100 µM; in assay [4] it was 0.0463 µM; in assay [5], 0.602 µM; in assay [6], above 100 µM; in [7], 16.7 µM. For the same compound, the TGI in [8], in [9] and in [10] was above 100 µM in each case.
For the compound `O=C1OCC2=C1C(c1ccccc1)c1cc3c(cc1N2CCO)OCO3` (stereo not drawn), the GI50 is 4.54 µM in [1]; 4.08 µM in assay [2]; 2.07 µM in assay [3]; 1.15 µM in assay [4]; 1.25 µM in assay [5]; 15.6 µM in assay [6]. For the same compound, the GI50 in assay [7] was 3.01 µM; in [8], above 50 µM; in [9], 2.53 µM; in [10], 27.8 µM. Also, the TGI in [1] is above 50 µM; in [2] it was above 50 µM; in assay [3] it was above 50 µM; in assay [4] it was 2.6 µM; in assay [5], 3.53 µM; in [6] it was above 50 µM. Moreover, the TGI in assay [7], in [8], in [9] and in [10] was above 50 µM throughout.
As for `O=C(O)c1ccccc1/C=N/N=C1c2ccccc2-c2ccccc21`, the TGI in assay [1] is 78.7 µM; in [2] it was above 100 µM; in assay [3] it was 70.2 µM; in [4] it was 36 µM; in assay [5] it was 61 µM; in [6] it was above 100 µM. The TGI in assay [7] was 55.6 µM; in assay [8], above 100 µM; in [9], above 100 µM; in [10], above 100 µM.
With `CSC(=NCCc1c[nH]c2ccccc12)NC#N`, the TGI in assay [1], in assay [2], in [3], in assay [4], in assay [5] and in [6] was above 100 µM throughout. Also, the TGI in assay [7], in [8], in assay [9] and in assay [10] was above 100 µM in each case.
